Data taken from US8404704B2 (Alfa Wassermann S.p.A., priority 2003, dated 2013).

How the values were obtained:
[1] = Reversible conversion of polymorphic forms with water content; assay type: physicochemical; conditions: water absorbed from atmospheric humidity
Source text: The product is hygroscopic and the obtained polymorphic form is reversible: the polymorphic form α absorbs water from atmospheric humidity, depending on the relative humidity and the exposure time. When the water content absorbed by the polymorphic form α becomes higher than 4.5%, polymorphous a converts to polymorphous β. This in its turn loses part of water by drying, changing into the polymorphic form α when a water content between […] is reached.

in vivo [2] = assay: in vivo; parameters: species or system Beagle female dogs; conditions: dog; for Tmax / AUC(0-t) / AUC(0-inf) / Cmax: female, beagle, po; for AUC(0-t): AUC0-24 h; for AUC(0-inf): AUC0-inf
Procedure: Sixteen 20 week pure-bred Beagle female dogs weighing between 5.0 and 7.5 kg, have been divided into four groups of four dogs.
Each sample was transferred into a heparinized tube and was centrifuged; the plasma was divided into 500 μl two aliquots and frozen at −20° C.
(§1) Tmax=time at which the Cmax is reached;
(§2) AUC=area under the concentration-time curve calculated through the linear trapezoidal rule.

[3] = Intrinsic dissolution test (USP 27 monograph 1087); assay type: physicochemical; conditions: phosphate buffer pH 7.4, 37°C; SLS 0.1%, 0.3%, 0.45% and absent
in vivo [4] = assay: in vivo; parameters: species or system Beagle female dogs; conditions: female, beagle, dog, po; for Tmax: tmax (characterising range of the form)
Procedure: Twelve 20 week pure-bred Beagle female dogs weighing between 5.0 and 7.5 kg, have been divided into three groups of four dogs.
Each sample was transferred into an heparinized tube and was centrifuged; the plasma was divided into two 500 μl aliquots and frozen at −20° C.
as §1, §2

[5] = Intrinsic dissolution test (USP 27 monograph 1087); assay type: physicochemical; conditions: 0.1M aqueous phosphate buffer pH 7.4 with 0.45% sodium lauryl sulphate, 37°C
Source text: The die-holder containing the compacted pellet was then mounted on a laboratory stirring device, immersed in a dissolution medium and rotated by means of the stirring device.
A compacted pellet was formed in the die with a single face of defined area exposed on the bottom of the die so that from 50% to 75% of the compacted pellet could dissolve in an appropriate dissolution medium.
The holder containing the die was mounted on a laboratory stirring device, immersed in a glass vessel containing a dissolution medium and rotated at a rotation speed of 100 rpm by means of the stirring device, while keeping the temperature of the dissolution medium at 37±0.5° C. The dissolution medium contained in the glass vessel consisted of 1000 ml of 0.1M aqueous phosphate buffer pH 7.4 containing 4.5 g of sodium lauryl sulphate (SLS) and was kept at 37±0.5° C. for the whole duration of the test.

| AUC0-24h (characterising range of the form) (in vivo [4]) | AUC0-inf (characterising range of the form) (in vivo [4]) | Cmax (characterising range of the form) (in vivo [4]) | AUC0-inf (characterising range of the form) (in vivo [4]; 100 mg/kg) | Cmax (characterising range of the form) (in vivo [4]; 100 mg/kg) | tmax (characterising range of the form) (in vivo [4]; 100 mg/kg) | Intrinsic dissolution rate [5] | Rifaximin dissolved ([5]; 15 min) | Rifaximin dissolved ([5]; 30 min) | Rifaximin dissolved ([5]; 45 min) | Rifaximin dissolved ([5]; 60 min) | Structure (SMILES) | other results |
| --- | --- | --- | --- | --- | --- | --- | --- | --- | --- | --- | --- | --- |
| 0 to 100 ng·h/mL | 10 to 24 ng·h/mL | 0.0 to 10 ng/mL | 0 to 110 ng·h/mL | 0.0 to 5.5 ng/mL | 1.0 to 6 h | – | – | – | – | – | CO[C@H]1/C=C/O[C@@]2(C)Oc3c(C)c(O)c4c(O)c(c5c(nc6cc(C)ccn65)c4c3C2=O)NC(=O)/C(C)=C\C=C\[C@H](C)[C@H](O)[C@@H](C)[C@@H](O)[C@@H](C)[C@H](OC(C)=O)[C@@H]1C [rifaximin α, Rifaximin] | water content above which form α converts to form β [1]: higher than 4.5%; Tmax (in vivo [2]; 100 mg/kg, tmax): 2.5 h; disintegration of the compacted pellet [3]: ≤ 10 min; Tmax (in vivo [4]): 1 to 6 h |
| – | 0.0 to 22000 ng·h/mL | – | – | 0.0 to 5000 ng/mL | 1.0 to 6.0 h | 0.1444 mg/min/cm^2 | 2.46 mg/cm^2 | 4.52 mg/cm^2 | 6.44 mg/cm^2 | 9.04 mg/cm^2 | CO[C@H]1/C=C/O[C@@]2(C)Oc3c(C)c(O)c4c(O)c(c5c(nc6cc(C)ccn65)c4c3C2=O)NC(=O)/C(C)=C\C=C\[C@H](C)[C@H](O)[C@@H](C)[C@@H](O)[C@@H](C)[C@H](OC(C)=O)[C@@H]1C [rifaximin γ, Rifaximin] | dose dependency of exposure (in words) (in vivo [2]): tended to increase in an over-proportional way compared to the administered dose; AUC(0-t) (in vivo [2]; 25 mg/kg): 304 ng·h/mL; AUC(0-inf) (in vivo [2]; 25 mg/kg): 548 ng·h/mL; Cmax (in vivo [2]; 25 mg/kg): 114 ng/mL; Tmax (in vivo [2]; 25 mg/kg, tmax): 1.5 h; Tmax (in vivo [2]; 100 mg/kg): 2 h; AUC(0-t) (in vivo [2]; 300 mg/kg): 25000 ng·h/mL; AUC(0-inf) (in vivo [2]; 300 mg/kg): 25500 ng·h/mL; Cmax (in vivo [2]; 300 mg/kg): 3150 ng/mL; Tmax (in vivo [2]; 300 mg/kg, tmax): 3 h; AUC(0-t) (in vivo [4]; 100 mg/kg, AUC0-24h (characterising range of the form)): < 22000 ng·h/mL; Cmax (in vivo [4]; Cmax): 1080 ng/mL |
| 0 to 40 ng·h/mL | 0 to 45 ng·h/mL | 0.0 to 40 ng/mL | 0.0 to 50 ng·h/mL | 0.0 to 3.7 ng/mL | – | 0.0147 mg/min/cm^2 | 0.28 mg/cm^2 | 0.50 mg/cm^2 | 0.72 mg/cm^2 | 0.94 mg/cm^2 | CO[C@H]1/C=C/O[C@@]2(C)Oc3c(C)c(O)c4c(O)c(c5c(nc6cc(C)ccn65)c4c3C2=O)NC(=O)/C(C)=C\C=C\[C@H](C)[C@H](O)[C@@H](C)[C@@H](O)[C@@H](C)[C@H](OC(C)=O)[C@@H]1C [rifaximin β, Rifaximin] | tmax (characterising range of the form) (in vivo [4]): 1 to 6 h; AUC(0-t) (in vivo [4]; 100 mg/kg, AUC0-t (characterising range of the form)): < 40 ng·h/mL; Tmax (in vivo [4]; 100 mg/kg): 1 to 6 h |
